According to US20230348364A1, “ISOTOPIC THYROMIMETIC COMPOUNDS” (Autobahn Therapeutics, Inc., priority 2020, published 2023):

Legend:
TRα = target: T1, TRα (Homo sapiens, UniProt P10827); test: Transactivation assay (DR4 TRE luciferase reporter, HEK 293), TRα; format: cell-based; settings: HEK 293 transfected with full length TRα-CMV, 24 hours, firefly luciferase normalized to Renilla
T1 construct: TR expression vector (full length TRα-CMV or TRβ-CMV); expressed in transfected cells; host or cells: HEK 293
T1 sequence (P10827 1-410 isoform P10827-2): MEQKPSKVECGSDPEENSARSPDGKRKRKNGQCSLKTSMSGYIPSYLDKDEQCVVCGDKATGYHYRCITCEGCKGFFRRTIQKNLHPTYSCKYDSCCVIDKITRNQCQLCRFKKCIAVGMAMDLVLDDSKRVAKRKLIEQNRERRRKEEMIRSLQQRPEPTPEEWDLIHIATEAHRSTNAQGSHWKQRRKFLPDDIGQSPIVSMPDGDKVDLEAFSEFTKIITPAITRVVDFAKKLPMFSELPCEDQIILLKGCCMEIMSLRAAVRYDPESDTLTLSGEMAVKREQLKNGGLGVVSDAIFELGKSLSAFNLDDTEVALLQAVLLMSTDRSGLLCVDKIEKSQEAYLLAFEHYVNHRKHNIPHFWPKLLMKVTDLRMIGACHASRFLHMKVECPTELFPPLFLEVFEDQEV
Description: (§1) The cells were trypsinized with 0.25% trypsin, then diluted to 5×10^5 cells/mL with high glucose DMEM. […] 1.5 µg of TR expression vector (full length TRα-CMV or TRβ-CMV), 1.5 µg of a reporter plasmid containing a DR4 thyroid hormone response element (TRE) direct repeat spaced by four nucleotides (AGGTCAcaggAGGTCA) cloned upstream of a minimal thymidine kinase promoter linked to a firefly luciferase coding sequence, and 0.75 µg of a pRL-SV40 constitutive Renilla luciferase reporter plasmid were diluted into 540 µl of OptiMEM. 27 µL of lipofectamine reagent was diluted into 540 µL of OptiMEM. The plasmid and lipofectamine dilutions were combined then incubated at RT for 10 min. The mixture was then diluted into 4.29 mL of OptiMEM. Plates were washed with 100 µL of phosphate buffered saline (PBS) at pH 7.2 without magnesium or calcium chloride per well. Transfection mixtures were added at 50 µL per well, then incubated at 37° C. for 4 hours. Modified DME/F-12 Ham’s medium without phenol red containing 15 mM HEPES and bicarbonate, 5 mM L-glutamine, charcoal-stripped FBS, 50 units/mL penicillin and 50 µg/mL streptomycin was added at 50 µL per well, then the plates were incubated at 37° C. for 20 hours. Drug stocks were made at 10 mM in DMSO, then serially diluted to 1X concentrations in DME/F-12 Ham’s. Plates were washed with 100 µL of PBS (pH 7.2) per well. 100 µL of each drug stock was added to the wells in triplicate, and then the plates are incubated at 37° C. for 24 hours.
(§2) Cells were assayed for luciferase activity using the Promega DualGlo kit. 50 µl of Luciferase Reagent was added per well, the plate was rocked for 15 min at RT, and then the plate was read for firefly luciferase activity. A 50 µl volume of Stop & Glo Reagent was added per well, then the plate was read for Renilla luciferase activity.

TRβ = target: T2, TRβ (Homo sapiens, UniProt P10828); test: Transactivation assay (DR4 TRE luciferase reporter, HEK 293), TRβ; format: cell-based; settings: HEK 293 transfected with full length TRβ-CMV, 24 hours, firefly luciferase normalized to Renilla
T2 construct: TR expression vector (full length TRα-CMV or TRβ-CMV); expressed in transfected cells; host or cells: HEK 293
T2 sequence (P10828 1-461): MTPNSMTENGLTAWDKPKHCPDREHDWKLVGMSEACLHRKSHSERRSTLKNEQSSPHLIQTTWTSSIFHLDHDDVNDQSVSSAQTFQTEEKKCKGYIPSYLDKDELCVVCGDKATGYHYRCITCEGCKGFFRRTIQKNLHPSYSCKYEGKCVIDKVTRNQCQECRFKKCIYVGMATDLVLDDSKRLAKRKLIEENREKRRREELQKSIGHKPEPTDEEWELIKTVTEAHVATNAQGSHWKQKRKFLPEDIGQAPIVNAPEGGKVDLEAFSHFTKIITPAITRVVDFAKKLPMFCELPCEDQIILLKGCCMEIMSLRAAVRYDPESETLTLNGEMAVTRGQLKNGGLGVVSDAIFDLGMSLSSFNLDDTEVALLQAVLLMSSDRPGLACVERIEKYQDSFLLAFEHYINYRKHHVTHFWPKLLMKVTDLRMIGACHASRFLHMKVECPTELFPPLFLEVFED
Description: as §1, §2

[1] = target: T3, Purified recombinant human FAAH (rhFAAH) (Homo sapiens, UniProt O00519); test: FAAH substrate evaluation (formation of acid metabolite); format: biochemical; settings: 0.5 ng/µL rhFAAH, 1 µM test compound, Tris-EDTA buffer pH 8.0, room temperature, 0-60 minutes
T3 construct: purchased Cayman Chemical (Ann Arbor, MI, USA)
T3 sequence (O00519 1-579): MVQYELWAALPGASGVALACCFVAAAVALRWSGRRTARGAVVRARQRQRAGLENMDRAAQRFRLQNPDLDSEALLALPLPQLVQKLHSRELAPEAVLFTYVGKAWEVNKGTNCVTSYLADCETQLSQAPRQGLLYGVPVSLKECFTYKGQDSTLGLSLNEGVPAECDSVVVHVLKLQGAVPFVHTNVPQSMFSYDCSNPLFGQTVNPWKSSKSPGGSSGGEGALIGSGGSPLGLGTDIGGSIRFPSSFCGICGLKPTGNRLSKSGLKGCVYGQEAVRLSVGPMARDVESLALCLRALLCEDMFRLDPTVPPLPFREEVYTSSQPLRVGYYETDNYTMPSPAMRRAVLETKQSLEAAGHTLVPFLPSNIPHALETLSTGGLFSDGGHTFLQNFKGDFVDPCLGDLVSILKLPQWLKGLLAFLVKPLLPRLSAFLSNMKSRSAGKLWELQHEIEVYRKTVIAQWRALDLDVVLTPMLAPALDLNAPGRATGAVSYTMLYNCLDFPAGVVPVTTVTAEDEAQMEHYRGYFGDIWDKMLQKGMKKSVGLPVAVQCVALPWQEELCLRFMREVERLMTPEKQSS
Description: Purified recombinant human FAAH (rhFAAH) was purchased from Cayman Chemical (Ann Arbor, MI, USA). The total volume for each incubation was 400 µL containing a final 0.5 ng/µL rhFAAH, 1 µM test compound, 1.25% ethanol or 1 µM PF-3845 (FAAH inhibitor), and 0.1% bovine serum albumin in Tris-EDTA buffer at pH 8.0). The positive control was LL-341001. The incubation was conducted at the room temperature. At 0, 5, 15, 30 and 60 minutes, an aliquot of 30 µL reaction mixtures was removed and mixed with 300 µL acetonitrile containing 5 ng/mL terfenadine and 10 ng/mL tolbutamide as internal standards to quench the reaction. The resulting mixture was centrifuged at 4000 rpm, 4° C. for 15 minutes, and 100 µL supernatant was ready for LC-MS/MS analysis to measure the formation of acid metabolite.
Acquity Ultra Performance LC system from Waters was used for sample analysis. The chromatography was performed on a reverse phase Kinetex 2.6 µm C18 column, 2.1 × 30 mm, 100 Å. The mobile phase A comprised of 0.1% formic acid in water and mobile phase B comprised of 0.1% formic acid in acetonitrile with a 2-min run time at the flow rate of 0.8 mL/min for the acid metabolite from positive control or a 1.5 min run time at the flow rate of 0.9 mL/min for the acid metabolite of test compounds. The mass spectrometer (API-5500 and API Q Trap 4000 Applied Biosystems/MDS SCIEX Instruments, Framingham, MA, USA) was operated under ESI positive or negative ion MRM mode.
The formation of acid metabolite was monitored and quantified using one calibration point of 1 µM. The observed rate constant (ke) for the acid metabolite formation was calculated by plotting the metabolite concentration versus time of incubation with the slope being ke and is shown in Table 1.

| Compound | EC50 (TRα) [nM] | EC50 (TRβ) [nM] | ke (observed rate constant for the acid metabolite formation) [1] |
| --- | --- | --- | --- |
| 2-(3,5-dichloro-4-(hydroxy-3-(propan-2-yl-d7)benzyl)phenoxy)acetic Acid [Compound 18] | 1 to 1000 | 1 to 1000 | – |
| [2H]C([2H])([2H])C([2H])(c1cc(Cc2c(Cl)cc(OCC(=O)NC)cc2Cl)ccc1O)C([2H])([2H])[2H] [Compound 1, 2-(3,5-dichloro-4-(4-hydroxy-3-(propan-2-yl-d7)benzyl)phenoxy)-N-Methylacetamide] | – | – | A (A = ke is less than 3.0 and more than or equal to 0.1.) |
| [2H]C([2H])(c1ccc(O)c(C(C)C)c1)c1c(Cl)cc(OCC(=O)O)cc1Cl [Compound 4, 2-(3,5-dichloro-4-((4-hydroxy-3-isopropylphenyl)methyl-d2)phenoxy)acetic Acid] | 1 to 1000 | 1 to 1000 | – |
| [2H]C([2H])(c1ccc(O)c(C(C)C)c1)c1c(Cl)cc(OCC(N)=O)cc1Cl [Compound 5, 2-(3,5-dichloro-4-((4-hydroxy-3-isopropylphenyl)methyl-d2)phenoxy)acetamide] | – | – | A (A = ke is less than 3.0 and more than or equal to 0.1.) |
| [2H]c1c(Cl)c(Cc2ccc(O)c(C(C)C)c2)c(Cl)c([2H])c1OCC(=O)O [Compound 6, 2-(3,5-dichloro-4-(4-hydroxy-3-isopropylbenzyl)phenoxy-2,6-d2)acetic Acid] | 1 to 1000 | 1 to 1000 | – |
| [2H]c1c(Cl)c(Cc2ccc(O)c(C(C)C)c2)c(Cl)c([2H])c1OCC(N)=O [Compound 7, 2-(3,5-dichloro-4-(4-hydroxy-3-isopropylbenzyl)phenoxy-2,6-d2)acetamide] | – | – | A (A = ke is less than 3.0 and more than or equal to 0.1.) |
| [2H]C([2H])(Oc1cc(Cl)c(Cc2ccc(O)c(C(C)C)c2)c(Cl)c1)C(=O)O [Compound 8, 2-(3,5-dichloro-4-(4-hydroxy-3-isopropylbenzyl)phenoxy)acetic-2,2-d2 Acid] | 1 to 1000 | 1 to 1000 | – |
| [2H]C([2H])(Oc1cc(Cl)c(Cc2ccc(O)c(C(C)C)c2)c(Cl)c1)C(N)=O [Compound 9, 2-(3,5-dichloro-4-(4-hydroxy-3-isopropylbenzyl)phenoxy)acetamide-2,2-d2] | – | – | A (A = ke is less than 3.0 and more than or equal to 0.1.) |
| [2H]C([2H])(c1ccc(O)c(C(C)C)c1)c1c(C)cc(OCC(=O)NC)cc1C [Compound 13, 2-(4-((4-hydroxy-3-isopropylphenyl)methyl-d2)-3,5-dimethylphenoxy)-N-methylacetamide] | – | – | A (A = ke is less than 3.0 and more than or equal to 0.1.) |
| [2H]C([2H])(Oc1cc(C)c(Cc2ccc(O)c(C(C)C)c2)c(C)c1)C(=O)NC [Compound 17, 2-(4-(4-hydroxy-3-isopropylbenzyl)-3,5-dimethylphenoxy)-N-methylacetamide-2,2-d2] | – | – | A (A = ke is less than 3.0 and more than or equal to 0.1.) |
| [2H]C([2H])([2H])C([2H])(c1cc(Cc2c(Cl)cc(OCC(=O)O)cc2Cl)ccc1O)C([2H])([2H])[2H] [Compound A-15] | 1 to 1000 | 1 to 1000 | – |
